We go through 1 molecule from patent US20160345553A1, “TRANSGENIC MOUSE MODELS FOR MC4R” (UNIVERSITE DE MONTREAL, priority 2012, published 2016).

The subject of assay [1] is non-transgenic littermate mice. Nature of the assay: In vivo test of DCPMP in non-transgenic littermate mice (food intake). More on the design: species or system mouse. To be noted: at the beginning of DCPMP treatment, 30 mg per kg i.p. daily. Here is the method: (§1) Mice were intraperitoneally injected one dose daily with vehicle or DCPMP at 30 mg per kg one hour before light off, for 9 days. Data are the average daily food intake (A, B. C), or the mean of the total body weight loss [total body weight before treatment—total body weight after 9 days treatment] (D), for each experimental group, Data are expressed as Mean±SEM. Numbers of animal per genotype are indicated in brackets.
(§2) Mice were intraperitoneally injected one dose daily with vehicle or N-((2R)-3(2,4-dichlorophenyl)-1-(4-(2-((1-methoxypropan-2-ylamino)methyl)phenyl)piperazin-1-yl)-1-oxopropan-2-yl)propionamide (DCPMP) at 30 mg per kg one hour before light off, for 9 days.
(§3) Animals were individually housed for 4 days prior to starting experiments. […] All animals were weighed prior to compound injection, and doses were normalized to individual animal body weight. Mice were intraperitoneally injected one dose daily with vehicle (1% Tween 80) or DCPMP at 30 mg per kg one hour before lights off (at 5:00 PM), for 9 days. Weight was monitored every 3 days during treatment and after stopping treatment. Food intake was measured during the recovery time for 7 days. Data are the average daily food intake or the mean of total body weight loss [total body weight before treatment—total body weight after 9 days treatment].

The test system of assay [2] is hMC4R (R165W) knock-in mice. Put plainly: In vivo test of DCPMP on knock-in mouse model carrying human mutant form of MC4R (food intake, weight loss). As to conditions: 30 mg per kg i.p. one dose daily for 9 days. Here is the method: as §1, §2, §3

Each structure is given as a SMILES string.

Regarding `CCC(=O)N[C@H](Cc1ccc(Cl)cc1Cl)C(=O)N1CCN(c2ccccc2CNC(C)COC)CC1` (stereo partly drawn) [DCPMP, N-((2R)-3(2,4-dichlorophenyl)-1-(4-(2-((1-methoxypropan-2-ylamino)methyl)phenyl)piperazin-1-yl)-1-oxopropan-2-yl)propionamide], the food consumption result in assay [1] is reported as “slightly reduced”. Further, the food intake result in assay [2] (hMC4R (R165W) male mice) is given as “reducing food intake”. The entries for the “weight loss, % of total weight” value in assay [2] (initially overweight heterozygous hMC4R (R165W) mice) and in assay [2] (initially overweight homozygous hMC4R (R165W) mice) were “up to 13%” and not above 15%, respectively.
